Experimental data from US20100087491A1, “POLYCYCLIC COMPOUNDS” (priority 2006, published 2010).

biological target: T1, S1P1 receptor (Homo sapiens, UniProt P21453); test: S1P1 (EDG-1) GTP[γ-35S] binding assay, membranes from CHO cells; type: biochemical; details: CHO cell membranes
T1 construct: expressed in transfected cells
Procedure: A. In Vitro: GPCR Activation Assay Measuring GTP [γ-^35S] Binding to Membranes Prepared from CHO Cells Expressing Human S1P Receptors
S1P, (EDG-1) GTP [γ-^35S] binding assay: Homogenized membranes are prepared from CHO cell clones stably expressing a human EDG-1 N-terminal c-myc tag. Cells are grown in suspension in two 850 cm^2 roller bottles for three or fours days before harvesting. The cells are centrifuged down, washed once with cold PBS, and resuspended in ≦20 ml of Buffer A (20 mM HEPES, pH 7.4, […], EDTA-free complete protease inhibitor cocktail [1 tablet/25 ml]). The cell suspension is homogenized on ice, using a Polytron homogenizer at 30000 rpm at three intervals of 15 seconds each. The homogenate is first centrifuged at 2000 rpm on a tabletop low speed centrifuge for 10 minutes. The supernatant, after passing through a cell strainer, is then re-centrifuged at 50,000×g for 25 minutes at 4° C. The pellet is resuspended into buffer B (15% glycerol, 20 mM HEPES, pH 7.4, 0.1 mM EDTA, EDTA-free complete protease inhibitor cocktail [1 tablet/10 ml]). Protein concentration of the preparation is determined using the BCA Protein Assay kit (Pierce) using BSA as standard. The membranes are aliquoted and kept frozen at −80° C.
Solutions of test compounds ranging from 10 mM to 0.01 nM are prepared in DMSO. S1P is diluted in 4% BSA solution as positive controls. The desired amount of membrane preparation is diluted with ice-cold assay buffer (20 mM HEPES, pH 7.4, 100 mM NaCl, 10 mM MgCl2, 0.1% Fatty acid-free BSA, 5 μM GDP) and vortexed well. 2 μl or less of compound is distributed into each well of a round-bottom 96-well polystyrene assay plate, followed by addition of 100 μl of diluted membranes (3-10 μg/well) and kept on ice until the addition of hot GTPγS. [^35S]-GTPγS is diluted 1:1000 (v/v) with cold assay buffer and 100 μl is added into each well. The reaction is carried out at room temperature for 90 minutes before the membranes are harvested onto Perkin-Elmer Unifilter® GF/B-96 filter plate using a Packard Filtermate Harvester. […]

T1 sequence (P21453 whole entry): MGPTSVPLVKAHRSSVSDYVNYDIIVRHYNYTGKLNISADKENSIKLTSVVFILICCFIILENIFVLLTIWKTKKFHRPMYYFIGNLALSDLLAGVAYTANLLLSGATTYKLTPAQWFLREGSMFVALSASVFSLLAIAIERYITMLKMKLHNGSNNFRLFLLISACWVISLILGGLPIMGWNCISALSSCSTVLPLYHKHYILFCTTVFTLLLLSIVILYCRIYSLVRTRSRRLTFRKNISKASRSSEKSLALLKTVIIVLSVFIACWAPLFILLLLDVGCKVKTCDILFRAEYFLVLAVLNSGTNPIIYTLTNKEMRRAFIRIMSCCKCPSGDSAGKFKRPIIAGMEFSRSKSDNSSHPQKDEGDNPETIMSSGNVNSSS

EC50	Compound
< 100 nM	CCc1cc(-c2noc(-c3ccc(OC(C)C)c(-c4ccccc4)c3)n2)ccc1S(N)(=O)=O [Example 105]
< 100 nM	CNCc1ccc(-c2noc(-c3ccc(-c4ccccc4)c(C(F)(F)F)c3)n2)cc1 [Example 44]
< 100 nM	CCOc1ccc(-c2nc(-c3ccc(CN)cc3)no2)cc1C(F)(F)F [Example 21]
